Assay results taken from patent US20200038355A1, “ANTIOXIDANTS FOR USE IN OPHTHALMIC SURGERY” (Case Western Reserve University, priority 2017, published 2020).
“Also recorded” adds a separate entry of the source.

Key:
[1] = test system: mice; assay: Mouse mock cataract surgery in vivo, immunofluorescence of EMT markers
Procedure: Age-matched four month old mice were used in this study. Mice were anesthetized and a central corneal incision was made. The lens fiber mass was removed by hydrodissection and the remaining lens was carefully washed by HBSS to remove any lens fiber debris. Saline buffer was injected to help mice to restore their proper eye shape. Eye drops containing the antibiotic Ofloxacin were applied once immediately after surgery, and mice were sacrificed at 2, 3, 4 and 5 days after surgery. For each mouse, bilateral surgeries were performed and 25 μl of 10 mM NAC or 2 mM of GSH-EE was injected into right eye chamber immediately after surgery and continual eye drop topical application was given every 6 hr from 7 am to 11 pm. The untreated left eye served as a control. Eyes collected immediately after surgery served as time zero control. At least 6 mice were used in each group. At each time point, eyes were carefully dissected and placed in 4% paraformaldehyde for 18 hr, and then subjected to paraffin embedding and sectioning. For paraffin embedded slides, 6 μm thick sections were deparaffinized and rehydrated using standard procedure. The slides were rinsed with PBS for 10 min and antigen retrieval was carried out in 0.1M sodium citrate, pH 6.0 buffer in a microwave oven using a 4 min at power 5 plus 8 min at power 3 program. The slides were then blocked and permeabilized with 5% normal goat serum, 0.3% triton X-100 for 30 min. The primary antibody, rabbit polyclonal collagen I antibody (1:250) (Abcam, Cambridge, Mass.), rabbit polyclonal vimentin (1:500) (ThermoFisher), mouse monoclonal fibronectin antibody (1:5) (Developmental Studies Hybridoma Bank, DSHB, University of Iowa), mouse monoclonal active β-catenin (Tyr489) (1:10) (DSHB) or FITC labeled mouse monoclonal αSMA antibody (1:1000) (Sigma-Aldrich) were applied in 0.1% BSA PBS solution and incubated at 4° C. overnight in a humid chamber. After wash, the Alexa-488 or/and Alexa-594 conjugated secondary antibodies (ThermoFisher) were then applied and incubated at room temperature for one hour in a humid chamber. After wash, the slides were mounted with Prolong antifade with DAPI (ThermoFisher). For lens explant culture, the explant was briefly fixed with 10% formaldehyde for 10 min and then subjected to directly staining procedure without antigen retrieval procedure. Confocal microscope—All confocal images were collected by a Leica SP8 gSTED confocal microscope equipped with two 3 Hyd SP GaAsP detectors and the AOBS system lasers include a 405 nm, Argon (458, 476, 488, 496, 514 nm), a tunable white light (470 to 670 nm), and a 592 nm STED depletion laser. For proper comparison, each channel of fluorescence was adjusted to the highest sensitivity/intensity but without over saturation from samples with the strongest signal. […]

[2] = test system: lens explant; assay: Mouse lens explant culture (ex vivo PCO mimetic model), αSMA immunofluorescence; assay type: cell-based; conditions: 10 mM NAC or 0.5 mM GSH-EE co-incubated with 1 ng/ml TGFβ2, 48 hr
Procedure: The isolated intact lens was rinsed three times with HBSS and then cultured in 12-well-plates with serum-free Medium 199 (ThermoFisher) with 50 unit/ml penicillin streptomycin at 37° C. in 5% CO2 incubator, as described above. The lens explant was cultured following the same procedure as described by a previous report. Tamiya et al., Exp Eye Res 71, 591-597 (2000). In brief, the mouse lens was placed in an anterior-toposterior orientation with the anterior attached to the culture dish. The lens posterior capsule was torn/cut by the tip of extra-fine forceps and then peeled towards anterior capsule and pinned on the plastic culture dish. The lens fiber mass was removed thereafter. The explant was cultured in serum-free MEM medium supplied with 50 unit/ml penicillin streptomycin at 37° C. in 5% CO2 incubator as described above. Only healthy growing explants were used for the described study and any unhealthy looking explants, such as folded explants or those with cell detachment, were discarded.
Cells were placed 24 hr before the treatment and fresh medium was replaced immediately before the treatment. The indicated concentrations of BSO, DMF, NAC, GSH-EE or TGFβ2 were added to fresh medium and incubated at various time intervals as indicated. After treatment time, the cells were harvested after three washes with ice-cold PBS and subjected to immunoblot or other assays as described below. For whole lens culture, the serum-free medium with or without BSO, NAC, GSH-EE or TGFβ2 was incubated immediately after isolation for 48 hr and the whole lens or lens capsule was collected for further analysis. […]
Confocal microscope—All confocal images were collected by a Leica SP8 gSTED confocal microscope equipped with two 3 Hyd SP GaAsP detectors and the AOBS system lasers include a 405 nm, Argon (458, 476, 488, 496, 514 nm), a tunable white light (470 to 670 nm), and a 592 nm STED depletion laser. For proper comparison, each channel of fluorescence was adjusted to the highest sensitivity/intensity but without over saturation from samples with the strongest signal. […]

With `CCOC(=O)CNC(=O)[C@H](CS)NC(=O)CC[C@H](N)C(=O)O` [GSH-EE, glutathione ethyl ester] the “production of EMT marker proteins (fibronectin, vimentin, collagen I, αSMA)” value ([1]; Gclm KO mice, 2 mM GSH-EE) was “partially but significantly attenuate” and the “TGFβ2-induced αSMA elevation in lens explant” value [2] was “partially, but significantly, attenuated”.

`CC(=O)N[C@@H](CS)C(=O)O` [NAC, N-acetyl cysteine] was tested, and the “nuclear colocalization (translocation) of active β-catenin” value ([1]; Gclc−/− (LEGSKO) mice, 72 hr after surgery, 10 mM NAC injected into eye chamber plus eye drops every 6 hours) was “significantly attenuated”, the “fibronectin/vimentin and collagen I/αSMA expression compared to control eyes” value ([1]; WT and LEGSKO mice, 10 mM NAC injection immediately after surgery and continuous topical application) was “remarkable attenuation” and the “inhibitory effect on EMT process compared with GSH-EE” value ([1]; in vivo cataract surgery models) was “much higher inhibitory effect than GSH-EE”. The “TGFβ2-induced αSMA elevation in lens explant” value [2] was “attenuated; also recorded: completely alleviated”.
